System: hepatocytes
Test: Seq-Well scRNA-Seq of hepatocytes after APAP overdose (signature scores, DEG vs untreated)
Assay type: in vivo, mouse

CC(=O)Nc1ccc(O)cc1 [APAP, acetaminophen]
Cp avg_logFC (APAP composite vs UT): 0.4362 | Cyb5 avg_logFC (APAP composite vs UT): −0.7102 | Cyp4a10 avg_logFC (APAP composite vs UT): 1.135 | Cyp4a14 avg_logFC (APAP composite vs UT): 1.704 | Fabp1 avg_logFC (APAP composite vs UT): −1.016 | Fga avg_logFC (APAP composite vs UT): 0.8285 | Fgb avg_logFC (APAP composite vs UT): 0.745 | Fgg avg_logFC (APAP composite vs UT): 0.6805 | Fgl1 avg_logFC (APAP composite vs UT): 0.8649 | Fth1 avg_logFC (APAP composite vs UT): 0.3784 | Gclc avg_logFC (APAP composite vs UT): 1.903 | Gm13775 avg_logFC (APAP composite vs UT): −1.078 | Gm15564 avg_logFC (APAP composite vs UT): 1.821 | Gm24601 avg_logFC (APAP composite vs UT): 0.9844 | Gm26924 avg_logFC (APAP composite vs UT): 1.419 | Gpx1 avg_logFC (APAP composite vs UT): −0.7686 | Grip2 avg_logFC (APAP composite vs UT): 0.8779 | Hbb-bs avg_logFC (APAP composite vs UT): 2.862 | Hilpda avg_logFC (APAP composite vs UT): 0.7786 | Hmgcs2 avg_logFC (APAP composite vs UT): 0.6293 | Hmox1 avg_logFC (APAP composite vs UT): 1.348 | Hrg avg_logFC (APAP composite vs UT): 0.5189 | Igfbp4 avg_logFC (APAP composite vs UT): 0.4353 | Lars2 avg_logFC (APAP composite vs UT): 1.711 | Mat1a avg_logFC (APAP composite vs UT): 1 | Mfsd2a avg_logFC (APAP composite vs UT): 0.6661 | Mt1 avg_logFC (APAP composite vs UT): 2.388 | Mt2 avg_logFC (APAP composite vs UT): 2.063 | Mup3 avg_logFC (APAP composite vs UT): −0.8062 | Mup5 avg_logFC (APAP composite vs UT): −1.371 | Mup6 avg_logFC (APAP composite vs UT): −2.032 | Mup7 avg_logFC (APAP composite vs UT): −1.116 | Mup9 avg_logFC (APAP composite vs UT): −2.004 | Mup11 avg_logFC (APAP composite vs UT): −3.214 | Mup12 avg_logFC (APAP composite vs UT): −1.27 | Mup15 avg_logFC (APAP composite vs UT): −1.316 | Mup16 avg_logFC (APAP composite vs UT): −1.602 | Mup17 avg_logFC (APAP composite vs UT): −2.354 | Mup18 avg_logFC (APAP composite vs UT): −1.727 | Mup19 avg_logFC (APAP composite vs UT): −2.396 | Mup21 avg_logFC (APAP composite vs UT): −1.008 | Ndrg2 avg_logFC (APAP composite vs UT): 0.4122 | Nudt7 avg_logFC (APAP composite vs UT): −1.564 | Ppl avg_logFC (APAP composite vs UT): 0.8798 | Rbp4 avg_logFC (APAP composite vs UT): 0.3014 | Retsat avg_logFC (APAP composite vs UT): 0.6813 | S100a8 avg_logFC (APAP composite vs UT): 1.128 | S100a9 avg_logFC (APAP composite vs UT): 1.343 | Saa1 avg_logFC (APAP composite vs UT): −1.078 | Selenbp2 avg_logFC (APAP composite vs UT): −1.19 | Sephs2 avg_logFC (APAP composite vs UT): 0.89 | Sepp1 avg_logFC (APAP composite vs UT): 0.4486 | Serpina1a avg_logFC (APAP composite vs UT): −0.6752 | Serpina1e avg_logFC (APAP composite vs UT): −0.662 | Serpina1d avg_logFC (APAP composite vs UT): −0.494 | Slco1a4 avg_logFC (APAP composite vs UT): 0.5526 | Snord118 avg_logFC (APAP composite vs UT): 0.6174 | Srxn1 avg_logFC (APAP composite vs UT): 1.878 | Sult1a1 avg_logFC (APAP composite vs UT): 0.5605 | Tnfrsf12a avg_logFC (APAP composite vs UT): 1.118 | Ttpa avg_logFC (APAP composite vs UT): 0.6012 | Ttr avg_logFC (APAP composite vs UT): −0.5306 | mt-Co1 avg_logFC (APAP composite vs UT): −1.433 | mt-Co2 avg_logFC (APAP composite vs UT): −1.397 | mt-Cytb avg_logFC (APAP composite vs UT): −1.571 | mt-Nd1 avg_logFC (APAP composite vs UT): −1.42 | mt-Nd2 avg_logFC (APAP composite vs UT): −1.242 | mt-Nd4 avg_logFC (APAP composite vs UT): −1.957 | mt-Nd5 avg_logFC (APAP composite vs UT): −1.384 | mt-Rnr1 avg_logFC (APAP composite vs UT): −0.4854 | mt-Rnr2 avg_logFC (APAP composite vs UT): −0.7783 | n-R5-8s1 avg_logFC (APAP composite vs UT): 1.253 | 1-Mar logFC (APAP vs UT): −0.4778 | 2-Mar logFC (APAP vs UT): −0.5599 | 1110008F13Rik logFC (APAP vs UT): −0.4553 | 1600014C10Rik logFC (APAP vs UT): −0.4982 | 3110043O21Rik logFC (APAP vs UT): 0.2694 | 8430408G22Rik logFC (APAP vs UT): −0.5021 | AA474408 logFC (APAP vs UT): 0.4364 | Aadac logFC (APAP vs UT): −0.62 | Abca1 logFC (APAP vs UT): 0.7245 | Abhd2 logFC (APAP vs UT): 0.4844 | Acox1 logFC (APAP vs UT): 0.2752 | Acsl4 logFC (APAP vs UT): 0.3147 | Acss2 logFC (APAP vs UT): −0.6201 | Adh4 logFC (APAP vs UT): −0.5269 | Adh5 logFC (APAP vs UT): −0.4914 | Adh6-ps1 logFC (APAP vs UT): −0.4185 | Adipor2 logFC (APAP vs UT): −0.4738 | Agmat logFC (APAP vs UT): −0.4718 | Ak3 logFC (APAP vs UT): 0.289 | Akr1c14 logFC (APAP vs UT): −0.5186 | Akr1c20 logFC (APAP vs UT): −0.5542 | Akr1e1 logFC (APAP vs UT): −0.2582 | Alas1 logFC (APAP vs UT): −0.4898 | Alb logFC (APAP vs UT): 0.4203 | Alcam logFC (APAP vs UT): 0.3238 | Aldh1a1 logFC (APAP vs UT): −0.4788 | Aldh3a2 logFC (APAP vs UT): −0.8342 | Aldh8a1 logFC (APAP vs UT): −0.6837 | Aox3 logFC (APAP vs UT): −0.3333

— patent US20230053540A1, “TREATMENT OF LIVER INJURY” (Massachusetts Institute of Technology, priority 2019, published 2023)
